Reference: patent US6274715A, “Tricyclic erythromycin derivatives” (priority 1997, dated 2001)
≈ marks a conversion by molar mass, not a printed value.

How the values were obtained:
Type in all cases: cell-based
[1] = test system: STAPHYLOCOCCUS AUREUS ATCC 6538P; test: In vitro antibacterial activity, MIC, BHI agar dilution; settings: S. aureus ATCC 6538P, 35-37° C., 20 to 24 hours, unit assumed
[2] = test system: STAPHYLOCOCCUS AUREUS A5177; test: as above; settings: S. aureus A5177, unit assumed
[3] = test system: STAPHYLOCOCCUS AUREUS A-5278; test: as above; settings: S. aureus A-5278, unit assumed
[4] = test system: STAPHYLOCOCCUS AUREUS CMX 642A; test: as above; settings: S. aureus CMX 642A, unit assumed
[5] = test system: STAPHYLOCOCCUS AUREUS NCTC10649M; test: as above; settings: S. aureus NCTC10649M, unit assumed
[6] = test system: STAPHYLOCOCCUS AUREUS CMX 553; test: as above; settings: S. aureus CMX 553, unit assumed
[7] = test system: STAPHYLOCOCCUS AUREUS 1775; test: as above; settings: S. aureus 1775, unit assumed
[8] = test system: STAPHYLOCOCCUS EPIDERMIDIS 3519; settings: S. epidermidis 3519; BHI agar; unit assumed
EN[…] ATCC 8043 = test: In vitro antibacterial activity, MIC, BHI agar dilution; settings: E. faecium ATCC 8043, unit assumed
Summary of the method: (§1)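 BHI agar dilution: twelve plates with successive compound dilutions, inoculated by replicator with 1:100 culture dilutions (1:10 for slow growers such as Micrococcus and Streptococcus), 20 to 24 hours at 35-37° C. MIC was the lowest concentration giving no growth, slight haze or sparse isolated colonies versus drug-free control; erythromycin A as class reference.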

M[…] ATCC 4698 = test: as above; settings: M. luteus ATCC 4698, unit assumed
Summary of the method: as §1

M[…] ATCC 9341 = test: as above; settings: M. luteus ATCC 9341, unit assumed
Summary of the method: as §1

STR[…] 508 = test: as above; settings: S. agalactiae CMX 508, unit assumed
Summary of the method: as §1

[9] = test system: STREPTOCOCCUS BOVIS A-5169; test: as above; settings: S. bovis A-5169, unit assumed
[10] = test system: STREPTOCOCCUS PYOGENES EES61; test: as above; settings: S. pyogenes EES61, unit assumed
[11] = test system: STREPTOCOCCUS PYOGENES 930; test: as above; settings: S. pyogenes 930, unit assumed
[12] = test system: STREPTOCOCCUS PYOGENES PIU 2548; test: as above; settings: S. pyogenes PIU 2548, unit assumed
ESCHERICHIA COLI JUHL = settings: E. coli JUHL; BHI agar; unit assumed
ESCHERICHIA COLI SS = test: In vitro antibacterial activity, MIC, BHI agar dilution; settings: E. coli SS, unit assumed
ESCHERICHIA COLI DC-2 = test: as above; settings: E. coli DC-2, unit assumed
ESCHERICHIA COLI H560 = test: as above; settings: E. coli H560, unit assumed
ESCHERICHIA COLI KNK 437 = settings: E. coli KNK 437; BHI agar; unit assumed
[13] = test system: ENTEROBACTER AEROGENES ATCC 13048; test: In vitro antibacterial activity, MIC, BHI agar dilution; settings: E. aerogenes ATCC 13048, unit assumed
[14] = test system: KLEBSIELLA PNEUMONIAE ATCC 8045; test: as above; settings: K. pneumoniae ATCC 8045, unit assumed
[15] = test system: PROVIDENCIA STUARTII CMX 640; settings: P. stuartii CMX 640; BHI agar; unit assumed
[16] = test system: PSEUDOMONAS AERUGINOSA BMH10; test: In vitro antibacterial activity, MIC, BHI agar dilution; settings: P. aeruginosa BMH10, unit assumed
[17] = test system: PSEUDOMONAS AERUGINOSA 5007; test: as above; settings: P. aeruginosa 5007, unit assumed
[18] = test system: PSEUDOMONAS AERUGINOSA K799/WT; test: as above; settings: P. aeruginosa K799/WT, unit assumed
[19] = test system: PSEUDOMONAS AERUGINOSA K799/61; test: as above; settings: P. aeruginosa K799/61, unit assumed
PSEUDOMONAS CEPACIA 296I = test: as above; settings: P. cepacia 296I, unit assumed
[20] = test system: PSEUDOMONAS AERUGINOSA DPHD-5263; test: as above; settings: P. aeruginosa DPHD-5263, unit assumed
[21] = test system: PSEUDOMONAS AERUGINOSA DPHD-2862; test: as above; settings: P. aeruginosa DPHD-2862, unit assumed
CANDIDA ALBICANS CCH 442 = test: as above; settings: C. albicans CCH 442, unit assumed
[22] = test system: MYCOBACTERIUM SMEGMATIS ATCC 114; test: as above; settings: M. smegmatis ATCC 114, unit assumed

Structure (SMILES): CC[C@H]1OC(=O)[C@H](C)C(=O)[C@H](C)[C@@H](O[C@@H]2O[C@H](C)C[C@H](N(C)C)[C@H]2O)[C@](C)(OC)C[C@@H](C)C2=NC3CN(C)CC3N3C(=O)O[C@@]1(C)[C@H]3[C@H]2C (stereo partly drawn) [Example 114]
- MIC [1]: 1.56 µg/mL (≈ 2.25 µM)
- MIC [2]: 0.78 µg/mL (≈ 1.13 µM)
- MIC [3]: > 100 µg/mL
- MIC [4]: 1.56 µg/mL (≈ 2.25 µM)
- MIC [5]: 1.56 µg/mL (≈ 2.25 µM)
- MIC [6]: 1.56 µg/mL (≈ 2.25 µM)
- MIC [7]: > 100 µg/mL
- MIC [8]: 1.56 µg/mL (≈ 2.25 µM)
- MIC (EN[…] ATCC 8043): 0.2 µg/mL (≈ 0.289 µM)
- MIC (M[…] ATCC 4698): 1.56 µg/mL (≈ 2.25 µM)
- MIC (M[…] ATCC 9341): 0.1 µg/mL (≈ 0.144 µM)
- MIC (STR[…] 508): 0.1 µg/mL (≈ 0.144 µM)
- MIC [9]: 0.02 µg/mL (≈ 0.0289 µM)
- MIC [10]: 0.05 µg/mL (≈ 0.0722 µM)
- MIC [11]: > 100 µg/mL
- MIC [12]: 1.56 µg/mL (≈ 2.25 µM)
- MIC (ESCHERICHIA COLI JUHL): 100 µg/mL (≈ 144 µM)
- MIC (ESCHERICHIA COLI SS): 0.78 µg/mL (≈ 1.13 µM)
- MIC (ESCHERICHIA COLI DC-2): 100 µg/mL (≈ 144 µM)
- MIC (ESCHERICHIA COLI H560): 50 µg/mL (≈ 72.2 µM)
- MIC (ESCHERICHIA COLI KNK 437): 100 µg/mL (≈ 144 µM)
- MIC [13]: 100 µg/mL (≈ 144 µM)
- MIC [14]: > 100 µg/mL
- MIC [15]: > 100 µg/mL
- MIC [16]: > 100 µg/mL
- MIC [17]: > 100 µg/mL
- MIC [18]: > 100 µg/mL
- MIC [19]: 6.2 µg/mL (≈ 8.95 µM)
- MIC (PSEUDOMONAS CEPACIA 296I): > 100 µg/mL
- MIC [20]: > 100 µg/mL
- MIC [21]: > 100 µg/mL
- MIC (CANDIDA ALBICANS CCH 442): > 100 µg/mL
- MIC [22]: 6.2 µg/mL (≈ 8.95 µM)

Structure (SMILES): CC[C@H]1OC(=O)[C@H](C)C(=O)[C@H](C)[C@@H](O[C@@H]2O[C@H](C)C[C@H](N(C)C)[C@H]2O)[C@](C)(OC)C[C@@H](C)C2=NC3CN(CCc4ccc([N+](=O)[O-])cc4)CC3N3C(=O)O[C@@]1(C)[C@H]3[C@H]2C (stereo partly drawn) [Example 118]
- MIC [1]: 0.39 µg/mL (≈ 0.471 µM)
- MIC [2]: 0.2 µg/mL (≈ 0.242 µM)
- MIC [3]: > 100 µg/mL
- MIC [4]: 0.39 µg/mL (≈ 0.471 µM)
- MIC [5]: 0.39 µg/mL (≈ 0.471 µM)
- MIC [6]: 0.39 µg/mL (≈ 0.471 µM)
- MIC [7]: > 100 µg/mL
- MIC [8]: 0.39 µg/mL (≈ 0.471 µM)
- MIC (EN[…] ATCC 8043): 0.2 µg/mL (≈ 0.242 µM)
- MIC (M[…] ATCC 4698): 0.2 µg/mL (≈ 0.242 µM)
- MIC (M[…] ATCC 9341): 0.05 µg/mL (≈ 0.0604 µM)
- MIC (STR[…] 508): 0.02 µg/mL (≈ 0.0242 µM)
- MIC [9]: ≤ 0.005 µg/mL
- MIC [10]: 0.05 µg/mL (≈ 0.0604 µM)
- MIC [11]: > 100 µg/mL
- MIC [12]: 0.78 µg/mL (≈ 0.942 µM)
- MIC (ESCHERICHIA COLI JUHL): 100 µg/mL (≈ 121 µM)
- MIC (ESCHERICHIA COLI SS): 0.78 µg/mL (≈ 0.942 µM)
- MIC (ESCHERICHIA COLI DC-2): > 100 µg/mL
- MIC (ESCHERICHIA COLI H560): 100 µg/mL (≈ 121 µM)
- MIC (ESCHERICHIA COLI KNK 437): > 100 µg/mL
- MIC [13]: > 100 µg/mL
- MIC [14]: > 100 µg/mL
- MIC [15]: > 100 µg/mL
- MIC [16]: > 100 µg/mL
- MIC [17]: > 100 µg/mL
- MIC [18]: > 100 µg/mL
- MIC [19]: 0.78 µg/mL (≈ 0.942 µM)
- MIC (PSEUDOMONAS CEPACIA 296I): > 100 µg/mL
- MIC [20]: > 100 µg/mL
- MIC [21]: > 100 µg/mL
- MIC (CANDIDA ALBICANS CCH 442): > 100 µg/mL
- MIC [22]: 0.78 µg/mL (≈ 0.942 µM)
